# In patent publication US20240270712A1, “BENZIMIDAZOLE COMPOUND OR SALT THEREOF, CANINE FILARIASIS CONTROL AGENT CONTAINING SAME, AND METHOD OF USE THEREOF” (NIHON NOHYAKU CO., LTD., priority 2021, published 2024):
# Tested on: L-3 stage larvae of canine filariae (Dirofilaria immitis)
# Assay: Impact evaluation test on growth of canine filariae
# Assay type: cell-based
# Settings: 168 h, read-out: growth inhibition rate (growth from L3-stage larvae to L4-stage larvae)
smiles,measurement,value
"FC(F)(F)C(F)(F)COc1ccc(-c2nc3cc(Br)c(Br)cc3[nH]2)cn1 [Compound 1-5, 5,6-dibromo-2-(6-(2,2,3,3,3-pentafluoropropyloxy)pyridin-3-yl)benzimidazole]",inhibition at 50 ppm,≥ 50%
